Measured values: PMC7380196, “Unveiling the activation dynamics of a fold-switch bacterial glycosyltransferase by ^19F NMR” (The Journal of Biological Chemistry, 2020)

Target: T1, PimA (Mycolicibacterium smegmatis, UniProt A0QWG6)
T1 construct: recombinant from pET29a-pimA in E. coli BL21(DE3) pLysS; purified
T1 sequence (A0QWG6 1-386): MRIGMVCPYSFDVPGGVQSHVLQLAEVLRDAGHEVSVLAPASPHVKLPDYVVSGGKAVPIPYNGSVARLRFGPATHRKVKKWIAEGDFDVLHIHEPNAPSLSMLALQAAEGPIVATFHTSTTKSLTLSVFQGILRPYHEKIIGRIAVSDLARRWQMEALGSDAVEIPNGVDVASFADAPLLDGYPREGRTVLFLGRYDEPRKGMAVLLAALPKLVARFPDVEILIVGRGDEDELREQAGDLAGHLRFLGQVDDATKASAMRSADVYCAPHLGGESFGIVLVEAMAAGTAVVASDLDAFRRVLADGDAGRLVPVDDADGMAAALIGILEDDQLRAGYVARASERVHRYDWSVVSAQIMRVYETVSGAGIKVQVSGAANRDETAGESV
Experiment: thermal unfolding by far-UV CD at […] nm
Format: binding
Conditions: 10 mM Tris-HCl, pH 7.5; 10 uM protein, ligand 1:15

With `Nc1nc2c(ncn2[C@@H]2O[C@H](COP(=O)(O)OP(=O)(O)O)[C@@H](O)[C@H]2O)c(=O)[nH]1` [GDP] the Tm was “after the addition of GDP, wild-type PimA, PimA^R144C, and PimA^R144C-TFA displayed a clear increase”.
